# US11427615B2, “Peptide compound and application thereof, and composition containing peptide compound” (XDCEXPLORER (SHANGHAI) CO., LTD., priority 2017, dated 2022)
# Starred links: 1 amine or outer side, 2 acyl side, 3 side chain; linkers in the order of their positions; H or OH if unused. Non-standard residues stand in square brackets, D forms with d. Residues, ends and D or L forms follow the SMILES beside them. dPhe(2,4-Cl2) = N[C@H](Cc1ccc(Cl)cc1Cl)C(=O)O; Phe(4-F) = N[C@@H](Cc1ccc(F)cc1)C(=O)O; Pro(4,4-F2) = O=C(O)[C@@H]1CC(F)(F)CN1; dAla(2-furyl) = N[C@H](Cc1ccco1)C(=O)O; dPhe(4-F) = N[C@H](Cc1ccc(F)cc1)C(=O)O; Arg(Me) = CNC(=N)NCCC[C@H](N)C(=O)O; Hyp = O=C(O)[C@@H]1C[C@@H](O)CN1; azaPro = O=C(N1CCCN1[*:1])[*:2]; 2Thi = N[C@@H](Cc1cccs1)C(=O)O; NMeL = CN[C@@H](CC(C)C)C(=O)O; Pip = O=C(O)[C@@H]1CCCCN1; Ac6c = NC1(C(=O)O)CCCCC1; Aze = O=C(O)[C@@H]1CCN1; azaGly = NNC(=O)O; βAla = NCCC(=O)O
# Target: T1, human kiss1 receptor (GPR54) (Homo sapiens, UniProt Q969F8)
# T1 construct: host or cells: NFAT-bla CHO-K1 cells (Chinese hamster ovary), purchased recombinant cell line
# Test: Kiss1 receptor (GPR54) binding activity of agonists, FRET detection in NFAT-bla CHO-K1 cells
# Format: cell-based
# Conditions: GPR54; measured according to the method of effect Embodiment 1; preliminary data; read-out: Preliminary measurement data (GPR54) EC50
# Experimental: Effect Embodiment 1 Determination of Kiss1 Receptor (GPR54) Binding Activity of Kiss1 Receptor (GPR54) Agonist
# The binding activity test of each compound from the above the embodiments with kiss1 receptor (GPR54) was performed by fluorescence energy resonance transfer (FRET) detection technology to detect EC50 values of polypeptides and peptide analogs. The cells used in this experiment were NFAT-bla CHO-K1 cells (k1720, invitrogen, thermosher) that express human kiss1 receptor (GPR54). The specific operations were as follows:
# Day 1: Seeding Cells in Plate
# 1. Microscope (CKX41, OLYMPUS), object lens×4 times, ocular lens×10 times. The cells were ensured in a good condition.
# 2. Digesting the cells, adding 3 ml of 0.05% pancreatin into a culture dish; cells were placed in a 37° C., 5% CO2 incubator for 2 minutes (Thermo Fisher). After the cells became round under the microscope, 7 ml of culture medium was added. The formula of culture medium was as follows: DMEM 90%, dialzedfbS10, NEAA 0.1 mM, HEPES 25 mM, Penicillin 100 U/ml, Streptomycin 100 μm/ml, pH7.3. After blowing and stirring, it was transferred to 15 mL centrifuge tube (430790, Corning). Centrifuge at 1000 rpm for 5 min (5810R, Eppendorf) and the supernatant was discard.
# 3. Adding 7 mL of culture medium (DMEM+0.1% BSA), it was pipetting into single cell suspension, after counting with Bio-RAD counter, the cell density was adjusted to 312,500 cells/ml.
# 4. Cells were inoculated into 384 well plates at 32 μL per well, and the cell number was controlled at 10000 cells/well. 32 μl of culture medium was added into the blank control.
# Day 2: Dosing and Data Analysis
# 1) The compound to be tested was prepared into 50 mM working solution with DMSO.
# 2) 40 μl of the working solution of the compound to be tested was added into column 2 of row A-H of U-shaped 96-well plate (3797, comings), and 60 μl of DMSO was added into column 3-11. 20 μl of compound solution was sucked from the second column to the third column with a multichannel pipette blowing and stirring evenly; 20 μl of compound solution was absorbed from the third column with a multichannel pipette, then added into the fourth column, blowed and stirred to mix well; the compound was serially diluted 4-fold to a total of 10 concentrations. Column 1 and column 12 of 96-well plates were supplemented with 40 μl DMSO.
# 2. Intermediate Plate Configuration
# 1) AU-shaped 96-well plate was used, 199 μL of culture medium (DMEM+0.1% BSA) was added to each well, 1 μL of diluted compound (or DMSO) was sucked from 1000× compound plate and added into the 96-well plate at the corresponding position, blowed and stirred to mix well.
# 2) Homemade positive compounds and compounds to be tested were added. The cell culture plate was took out from the incubator and cells state was observed under microscope. Diluted compound in the intermediate plate or DMSO was added into the cell, 8 μl per well.
# 3) Cells were cultured in 37° C. and 5% CO2 for 4 hours.
# 3. The Substrate was Added to Detect the Binding of the Drug to the Receptor
# 1) 1 μmol/L CCF-4AM solution and buffer solution B, C, D were equilibrated to room temperature. LiveBLAZER™-FRET B/G Loading Kit (K1095, thermo Fisher) containing CCF-4AM and solution B, solution C, solution D were also available from Invitrogen (K1157, thermo Fisher).
# 2) 6× loading solution was prepared: 6 μl of CCF-4AM dissolved solution A, 60 μl of solution b, 904 μl of solution c, and 30 μl of solution D were pipetted into EP tube, blowed and stirred to mix well.
# 3) 8 μl of the above-mentioned liquid was sucked with a multichannel pipette, added into a 96-well plate, and incubated for 2 hours at room temperature.
# 4) The PerkinElmer detector was used to detect the luminous signals of each hole. FI mode, λex=409 nm, λem1=460 nm, λem2=530 nm.
# 4. Data Processing Using Graphpad Prism 5 (GraphPad Software. Inc)
# Effective rate %=(Signal−Min)/(Max−Min)×100%.
# T1 sequence (Q969F8 whole entry): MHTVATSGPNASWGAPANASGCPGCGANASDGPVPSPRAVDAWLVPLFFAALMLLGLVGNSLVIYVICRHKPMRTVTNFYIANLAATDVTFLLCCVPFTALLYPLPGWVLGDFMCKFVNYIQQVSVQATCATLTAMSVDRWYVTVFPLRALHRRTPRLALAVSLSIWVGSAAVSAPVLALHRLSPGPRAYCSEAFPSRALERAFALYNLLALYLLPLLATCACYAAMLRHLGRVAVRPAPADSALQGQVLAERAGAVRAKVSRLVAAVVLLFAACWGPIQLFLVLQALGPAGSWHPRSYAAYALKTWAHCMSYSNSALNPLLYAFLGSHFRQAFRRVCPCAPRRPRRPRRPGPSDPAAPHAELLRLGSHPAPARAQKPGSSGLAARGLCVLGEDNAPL
row,EC50,Compound
1,0.025 nM,"CNC(=N)NCCC[C@H](NC(=O)[C@H](CC(C)C)NC(=O)NNC(=O)[C@H](Cc1ccccc1)NC(=O)[C@@H](NC(=O)[C@H](CC(N)=O)NC(=O)[C@@H](Cc1ccco1)NC(=O)[C@@H](Cc1ccc(O)cc1)NC(C)=O)[C@@H](C)O)C(=O)N[C@@H](Cc1c[nH]c2ccccc12)C(N)=O [YA-165, Ac-D-Tyr-(D-2Fua)-Asn-Thr-Phe-azaGly-Leu-Arg(Me)-Trp-NH2] (Ac-[dY][dAla(2-furyl)]NTF[azaGly]L[Arg(Me)]W-NH2)"
2,0.86 nM,CNC(=N)NCCC[C@H](NC(=O)[C@H](CC(C)C)NC(=O)NNC(=O)[C@H](Cc1ccccc1)NC(=O)[C@@H](Cc1ccco1)NC(=O)[C@H](CC(N)=O)NC(=O)[C@@H]1C[C@@H](O)CN1C(=O)[C@@H](Cc1ccc(O)cc1)NC(C)=O)C(=O)N[C@@H](Cc1c[nH]c2ccccc12)C(N)=O [YA-166] (Ac-[dY][Hyp]N[dAla(2-furyl)]F[azaGly]L[Arg(Me)]W-NH2)
3,0.531 nM,"CNC(=N)NCCC[C@H](NC(=O)[C@H](CC(C)C)NC(=O)[C@@H](Cc1ccco1)NC(=O)[C@H](Cc1ccccc1)NC(=O)[C@@H](NC(=O)[C@H](CC(N)=O)NC(=O)[C@@H]1C[C@@H](O)CN1C(=O)[C@@H](Cc1ccc(O)cc1)NC(C)=O)[C@@H](C)O)C(=O)N[C@@H](Cc1c[nH]c2ccccc12)C(N)=O [YA-168, Ac-D-Tyr-Hyp-Asn-Thr-Phe-(D-2Fua)-Leu-Arg(Me)-Trp-NH2] (Ac-[dY][Hyp]NTF[dAla(2-furyl)]L[Arg(Me)]W-NH2)"
4,6.53 nM,"CNC(=N)NCCC[C@H](NC(=O)[C@H](CC(C)C)NC(=O)NNC(=O)[C@H](Cc1ccccc1)NC(=O)[C@@H](NC(=O)[C@H](CC(N)=O)NC(=O)[C@@H]1C[C@@H](O)CN1C(=O)[C@@H](Cc1ccc(O)cc1)NC(C)=O)[C@@H](C)O)C(=O)N[C@H](Cc1ccco1)C(N)=O [YA-169, Ac-(D-Tyr)-Hyp-Asn-Thr-Phe-azaGly-Leu-Arg(Me)-[3-(2-furyl)-D-Ala]-NH2] (Ac-[dY][Hyp]NTF[azaGly]L[Arg(Me)][dAla(2-furyl)]-NH2)"
5,0.007 nM,"CNC(=N)NCCC[C@H](NC(=O)[C@H](CC(C)C)NC(=O)NNC(=O)[C@H](Cc1ccccc1)NC(=O)[C@@H](NC(=O)[C@H](CC(N)=O)NC(=O)[C@@H]1C[C@@H](O)CN1C(=O)[C@@H](Cc1ccc(F)cc1)NC(C)=O)[C@@H](C)O)C(=O)N[C@@H](Cc1c[nH]c2ccccc12)C(N)=O [YA-170, Ac-[D-Phe(4-F)]-Hyp-Asn-Thr-Phe-azaGly-Leu-Arg(Me)-Trp-NH2] (Ac-[dPhe(4-F)][Hyp]NTF[azaGly]L[Arg(Me)]W-NH2)"
6,2.6 nM,"CNC(=N)NCCC[C@H](NC(=O)[C@H](CC(C)C)NC(=O)NNC(=O)C1(NC(=O)[C@@H](NC(=O)[C@H](CC(N)=O)NC(=O)[C@@H]2C[C@@H](O)CN2C(=O)[C@@H](Cc2ccc(O)cc2)NC(C)=O)[C@@H](C)O)CCCCC1)C(=O)N[C@@H](Cc1c[nH]c2ccccc12)C(N)=O [YA-174, Ac-(D-Tyr)-Hyp-Asn-Thr-A6c-azaGly-Leu-Arg(Me)-Trp-NH2] (Ac-[dY][Hyp]NT[Ac6c][azaGly]L[Arg(Me)]W-NH2)"
7,0.011 nM,"CNC(=N)NCCC[C@H](NC(=O)[C@H](CC(C)C)NC(=O)NNC(=O)[C@H](Cc1ccccc1)NC(=O)[C@@H](NC(=O)[C@H](CC(N)=O)NC(=O)[C@H](Cc1cccs1)NC(=O)[C@@H](Cc1ccc(Cl)cc1Cl)NC(C)=O)[C@@H](C)O)C(=O)N[C@@H](Cc1c[nH]c2ccccc12)C(N)=O [YA-178, Ac-[D-Phe(2,4-DiCl)]-Thi-Asn-Thr-Phe-azaGly-Leu-Arg(Me)-Trp-NH2] (Ac-[dPhe(2,4-Cl2)][2Thi]NTF[azaGly]L[Arg(Me)]W-NH2)"
8,48 nM,"CNC(=N)NCCC[C@H](NC(=O)[C@H](CC(C)C)NC(=O)N1CCCN1C(=O)[C@H](Cc1ccccc1)NC(=O)[C@@H](NC(=O)[C@H](CC(N)=O)NC(=O)[C@@H]1C[C@@H](O)CN1C(=O)[C@@H](Cc1ccc(Cl)cc1Cl)NC(C)=O)[C@@H](C)O)C(=O)N[C@@H](Cc1c[nH]c2ccccc12)C(N)=O [YA-184, Ac-[D-Phe(2,4-DiCl)]-Hyp-Asn-Thr-Phe-azaPro-Leu-Arg(Me)-Trp-NH2] (Ac-[dPhe(2,4-Cl2)][Hyp]NTF[azaPro]L[Arg(Me)]W-NH2)"
9,3.63 nM,"CNC(=N)NCCC[C@H](NC(=O)[C@H](CC(C)C)N(C)C(=O)CCNC(=O)[C@H](Cc1ccccc1)NC(=O)[C@@H](NC(=O)[C@H](CC(N)=O)NC(=O)[C@@H]1CCCCN1C(=O)[C@@H](Cc1ccc(Cl)cc1Cl)NC(C)=O)[C@@H](C)O)C(=O)N[C@@H](Cc1c[nH]c2ccccc12)C(N)=O [YA-185, Ac-[D-Phe(2,4-DiCl)]-(S-Pip)-Asn-Thr-Phe-BetaAla-NMeLeu-Arg(Me)-Trp-NH2] (Ac-[dPhe(2,4-Cl2)][Pip]NTF[βAla][NMeL][Arg(Me)]W-NH2)"
10,3.89 nM,"CNC(=N)NCCC[C@H](NC(=O)[C@H](CC(C)C)N(C)C(=O)CCNC(=O)[C@H](Cc1ccccc1)NC(=O)[C@@H](NC(=O)[C@H](CC(N)=O)NC(=O)[C@@H]1CC(F)(F)CN1C(=O)[C@@H](Cc1ccco1)NC(C)=O)[C@@H](C)O)C(=O)N[C@@H](Cc1c[nH]c2ccccc12)C(N)=O [YA-186, Ac-[3-(2-Furyl)-D-Ala]-(DiFluorPro)-Asn-Thr-Phe-BetaAla-NMeLeu-Arg(Me)-Trp-NH2] (Ac-[dAla(2-furyl)][Pro(4,4-F2)]NTF[βAla][NMeL][Arg(Me)]W-NH2)"
11,1.85 nM,"CNC(=N)NCCC[C@H](NC(=O)[C@H](CC(C)C)N(C)C(=O)CCNC(=O)[C@H](Cc1ccccc1)NC(=O)[C@@H](NC(=O)[C@H](CC(N)=O)NC(=O)[C@@H]1C[C@@H](O)CN1C(=O)[C@@H](Cc1ccc(Cl)cc1Cl)NC(C)=O)[C@@H](C)O)C(=O)N[C@@H](Cc1c[nH]c2ccccc12)C(N)=O [YA-187, Ac-[D-Phe(2,4-DiCl)]-Hyp-Asn-Thr-Phe-BetaAla-NMeLeu-Arg(Me)-Trp-NH2] (Ac-[dPhe(2,4-Cl2)][Hyp]NTF[βAla][NMeL][Arg(Me)]W-NH2)"
12,0.477 nM,"CNC(=N)NCCC[C@H](NC(=O)[C@H](CC(C)C)NC(=O)[C@@H]1CCN1C(=O)[C@H](Cc1ccccc1)NC(=O)[C@@H](NC(=O)[C@H](CC(N)=O)NC(=O)[C@@H]1C[C@@H](O)CN1C(=O)[C@@H](Cc1ccc(Cl)cc1Cl)NC(C)=O)[C@@H](C)O)C(=O)N[C@@H](Cc1c[nH]c2ccccc12)C(N)=O [YA-188, Ac-[D-Phe(2,4-DiCl)]-Hyp-Asn-Thr-Phe-Aze-Leu-Arg(Me)-Trp-NH2] (Ac-[dPhe(2,4-Cl2)][Hyp]NTF[Aze]L[Arg(Me)]W-NH2)"
13,1.7 nM,"CNC(=N)NCCC[C@H](NC(=O)[C@H](CC(C)C)NC(=O)[C@@H]1CCN1C(=O)[C@H](Cc1ccccc1)NC(=O)[C@@H](NC(=O)[C@H](CC(N)=O)NC(=O)[C@@H]1C[C@@H](O)CN1C(=O)[C@@H](Cc1ccco1)NC(C)=O)[C@@H](C)O)C(=O)N[C@@H](Cc1c[nH]c2ccccc12)C(N)=O [YA-189, Ac-D-2Fua-Hyp-Asn-Thr-Phe-Aze-Leu-Arg(Me)-Trp-NH2] (Ac-[dAla(2-furyl)][Hyp]NTF[Aze]L[Arg(Me)]W-NH2)"
14,3.89 nM,"CNC(=N)NCCC[C@H](NC(=O)[C@H](CC(C)C)NC(=O)[C@@H]1CCN1C(=O)[C@H](Cc1ccccc1)NC(=O)[C@@H](NC(=O)[C@H](CC(N)=O)NC(=O)[C@@H]1C[C@@H](O)CN1C(=O)[C@H](Cc1ccc(F)cc1)NC(C)=O)[C@@H](C)O)C(=O)N[C@@H](Cc1c[nH]c2ccccc12)C(N)=O [YA-190, Ac-Phe(4-F)-Hyp-Asn-Thr-Phe-Aze-Leu-Arg(Me)-Trp-NH2] (Ac-[Phe(4-F)][Hyp]NTF[Aze]L[Arg(Me)]W-NH2)"
15,0.521 nM,"CNC(=N)NCCC[C@H](NC(=O)[C@H](CC(C)C)NC(=O)[C@@H]1CCN1C(=O)[C@H](Cc1ccccc1)NC(=O)[C@@H](NC(=O)[C@H](CC(N)=O)NC(=O)[C@H](Cc1cccs1)NC(=O)[C@@H](Cc1ccc(O)cc1)NC(C)=O)[C@@H](C)O)C(=O)N[C@@H](Cc1c[nH]c2ccccc12)C(N)=O [YA-191, Ac-D-Tyr-Thi-Asn-Thr-Phe-Aze-Leu-Arg(Me)-Trp-NH2] (Ac-[dY][2Thi]NTF[Aze]L[Arg(Me)]W-NH2)"
16,1.36 nM,"CNC(=N)NCCC[C@H](NC(=O)[C@H](CC(C)C)NC(=O)[C@@H]1CCN1C(=O)[C@H](Cc1ccccc1)NC(=O)[C@@H](NC(=O)[C@H](CC(N)=O)NC(=O)[C@@H]1CC(F)(F)CN1C(=O)[C@@H](Cc1ccc(O)cc1)NC(C)=O)[C@@H](C)O)C(=O)N[C@@H](Cc1c[nH]c2ccccc12)C(N)=O [YA-193, Ac-(D-Tyr)-Pro(diF)-Asn-Thr-Phe-Aze-Leu-Arg(Me)-Trp-NH2] (Ac-[dY][Pro(4,4-F2)]NTF[Aze]L[Arg(Me)]W-NH2)"
17,0.544 nM,"CNC(=N)NCCC[C@H](NC(=O)[C@H](CC(C)C)NC(=O)[C@@H]1CCN1C(=O)[C@H](Cc1ccccc1)NC(=O)[C@@H](NC(=O)[C@H](CC(N)=O)NC(=O)[C@@H]1CCCCN1C(=O)[C@@H](Cc1ccc(O)cc1)NC(C)=O)[C@@H](C)O)C(=O)N[C@@H](Cc1c[nH]c2ccccc12)C(N)=O [YA-194, Ac-D-Tyr-(S-Pip)-Asn-Thr-Phe-Aze-Leu-Arg(Me)-Trp-NH2] (Ac-[dY][Pip]NTF[Aze]L[Arg(Me)]W-NH2)"
18,0.68 nM,"CNC(=N)NCCC[C@H](NC(=O)[C@H](CC(C)C)NC(=O)C1(NC(=O)[C@H](Cc2ccccc2)NC(=O)[C@@H](NC(=O)[C@H](CC(N)=O)NC(=O)[C@@H]2C[C@@H](O)CN2C(=O)[C@@H](Cc2ccc(F)cc2)NC(C)=O)[C@@H](C)O)CCCCC1)C(=O)N[C@@H](Cc1c[nH]c2ccccc12)C(N)=O [YA-195, Ac-[D-Phe(4-F)]-Hyp-Asn-Thr-Phe-A6c-Leu-Arg(Me)-Trp-NH2] (Ac-[dPhe(4-F)][Hyp]NTF[Ac6c]L[Arg(Me)]W-NH2)"
19,0.48 nM,"CNC(=N)NCCC[C@H](NC(=O)[C@H](CC(C)C)NC(=O)C1(NC(=O)[C@H](Cc2ccccc2)NC(=O)[C@@H](NC(=O)[C@H](CC(N)=O)NC(=O)[C@@H]2C[C@@H](O)CN2C(=O)[C@@H](Cc2ccc(Cl)cc2Cl)NC(C)=O)[C@@H](C)O)CCCCC1)C(=O)N[C@@H](Cc1c[nH]c2ccccc12)C(N)=O [YA-196, Ac-[D-Phe(2,4-DiCl)]-Hyp-Asn-Thr-Phe-A6c-Leu-Arg (Me)-Trp-NH2] (Ac-[dPhe(2,4-Cl2)][Hyp]NTF[Ac6c]L[Arg(Me)]W-NH2)"

# Same assay, conditions: NFAT-bla CHO-K1 cells that express human kiss1 receptor (GPR54); FRET; cells cultured with compound for 4 hours; read-out: GPR54 EC50/nM
row,EC50,Compound
1,24.3 nM,"CNC(=N)NCCC[C@H](NC(=O)[C@H](CC(C)C)NC(=O)[C@@H]1CCN1C(=O)[C@H](Cc1ccccc1)NC(=O)[C@@H](NC(=O)[C@H](CC(N)=O)NC(=O)[C@@H]1C[C@@H](O)CN1C(=O)[C@H](Cc1ccc(F)cc1)NC(C)=O)[C@@H](C)O)C(=O)N[C@@H](Cc1c[nH]c2ccccc12)C(N)=O [YA-190, Ac-Phe(4-F)-Hyp-Asn-Thr-Phe-Aze-Leu-Arg(Me)-Trp-NH2] (Ac-[Phe(4-F)][Hyp]NTF[Aze]L[Arg(Me)]W-NH2)"
